Reference: patent publication US7408066B2, “Carbon-linked substituted piperidines and derivatives thereof useful as histamine H3 antagonists” (Schering Corproation, priority 2005, dated 2008)

Tests used:
[1] = target: T1, H3 receptors (recombinant human receptor, expressed in HEK-293 cells) (Homo sapiens, UniProt Q9Y5N1); test: H3-receptor binding assay, recombinant human receptor
T1 construct: expressed in transfected cells; host or cells: HEK-293 (human embryonic kidney) cells
Method: (§1) General Procedure for H3-Receptor Binding Assay
(§2) The source of the H3 receptors in this experiment was guinea pig brain. Alternatively, the source of H3 receptors was recombinant human receptor, expressed in HEK-293 (human embryonic kidney) cells.
All compounds to be tested were dissolved in DMSO and then diluted into the binding buffer (50 mM Tris, pH 7.5) such that the final concentration was 2 μg/ml with 0.1% DMSO. Membranes were then added (400 μg of protein, 5 μg in the case of recombinant human receptor) to the reaction tubes. The reaction was started by the addition of 3 nM [^3H]R-α-methyl histamine (8.8 Ci/mmol) or 3 nM [^3H]N^α-methyl histamine (80 Ci/mmol) and continued under incubation at 30° C. for 30 min. Bound ligand was separated from unbound ligand by filtration, and the amount of radioactive ligand bound to the membranes was quantitated by liquid scintillation spectrometry. All incubations were performed in duplicate and the standard error was always less than 10%. Compounds that inhibited more than 70% of the specific binding of radioactive ligand to the receptor were serially diluted to determine a Ki (nM).

[2] = target: T2, H3 receptors (guinea pig brain) (Cavia porcellus, UniProt Q9JI35); test: H3-receptor binding assay, guinea pig brain membranes
T2 construct: The brain tissue was homogenized with a solution of 50 mM Tris, pH 7.5; from tissue; host or cells: guinea pig brain membranes
Method: as §1, §2
The animals weighed 400-600 g. The brain tissue was homogenized with a solution of 50 mM Tris, pH 7.5. The final concentration of tissue in the homogenization buffer was 10% w/v. The homogenates were centrifuged at 1,000×g for 10 min. in order to remove clumps of tissue and debris. The resulting supernatants were then centrifuged at 50,000×g for 20 min. in order to sediment the membranes, which were next washed three times in homogenization buffer (50,000×g for 20 min. each). The membranes were frozen and stored at −70° C. until needed.
All compounds to be tested were dissolved in DMSO and then diluted into the binding buffer (50 mM Tris, pH 7.5) such that the final concentration was 2 μg/ml with 0.1% DMSO. Membranes were then added (400 μg of protein, 5 μg in the case of recombinant human receptor) to the reaction tubes. […] Bound ligand was separated from unbound ligand by filtration, and the amount of radioactive ligand bound to the membranes was quantitated by liquid scintillation spectrometry. […]

T2 sequence (Q9JI35 whole entry): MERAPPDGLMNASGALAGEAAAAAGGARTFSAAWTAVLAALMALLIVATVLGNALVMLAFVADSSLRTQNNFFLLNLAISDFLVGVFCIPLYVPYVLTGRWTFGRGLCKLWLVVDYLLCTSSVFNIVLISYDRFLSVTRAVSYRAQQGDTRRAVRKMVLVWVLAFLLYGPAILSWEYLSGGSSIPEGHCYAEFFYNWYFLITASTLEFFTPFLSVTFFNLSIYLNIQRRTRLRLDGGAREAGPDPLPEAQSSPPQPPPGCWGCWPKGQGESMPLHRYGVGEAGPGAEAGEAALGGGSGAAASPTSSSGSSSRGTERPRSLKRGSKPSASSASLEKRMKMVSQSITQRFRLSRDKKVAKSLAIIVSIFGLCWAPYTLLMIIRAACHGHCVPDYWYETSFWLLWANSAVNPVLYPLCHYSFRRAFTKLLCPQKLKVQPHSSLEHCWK
T1 sequence (Q9Y5N1 whole entry): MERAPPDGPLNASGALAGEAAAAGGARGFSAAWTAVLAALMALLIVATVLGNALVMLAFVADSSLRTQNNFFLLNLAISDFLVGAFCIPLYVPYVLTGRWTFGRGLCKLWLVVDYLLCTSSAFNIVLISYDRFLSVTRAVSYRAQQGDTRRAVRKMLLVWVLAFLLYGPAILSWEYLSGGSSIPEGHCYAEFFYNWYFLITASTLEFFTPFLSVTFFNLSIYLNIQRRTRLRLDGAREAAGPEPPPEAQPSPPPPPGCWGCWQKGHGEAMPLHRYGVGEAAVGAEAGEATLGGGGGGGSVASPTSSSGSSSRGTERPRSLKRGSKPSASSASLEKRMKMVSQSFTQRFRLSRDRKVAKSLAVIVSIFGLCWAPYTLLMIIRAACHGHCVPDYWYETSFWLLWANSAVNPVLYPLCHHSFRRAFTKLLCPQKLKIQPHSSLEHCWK

Row | Compound | Ki [1] | Ki [2]
1 | CNC(=O)[C@H]1C[C@@]1(c1ccc(Cl)cc1)C1CCN(C(=O)C2CCN(Cc3ccnc(N)c3)CC2)CC1 [Example 88] | 1100 pM | 
2 | CS(=O)(=O)NC(c1ccccn1)C1CCN(C(=O)C2CCN(Cc3ccnc(N)c3)CC2)CC1 (centres unmarked) [Example 92] |  | 350 pM
